According to patent publication US5620864A, “Acceptor for fucosyl transferase” (Health Research, Inc., priority 1992, dated 1997):

Experiments:
[1] = test system: α1,3-L-fucosyltransferase of the soluble fraction of human ovarian tumor; assay: Assay of α1,3-fucosyltransferase with synthetic acceptors, partially purified enzyme of ovarian tumor soluble fraction; format: biochemical; conditions: for [14C] Fucose Incorporated (CPM): acceptor 3.0 mM, 37° C. 18 h
Method: (§1) An incubation mixture contained 50 mM HEPES-NaOH, pH 7.5, 5 mM MnC12, 7 mM ATP, 3 mM NaN3, the acceptor 0.3 mM (for serum enzyme) or 3.0 mM (for tumor enzyme), 0.125 μCi of GDP-[U-^14 C] Fuc (Sp. Act. 216 mCi/mmol) and enzyme in a total volume of 0.10 ml; the control incubation mixture had everything except the acceptor. At the end of incubation at 37° C. for 18 h, the mixture was diluted with 1 ml water and passed through Dowex-1-C1 column (1 ml in a Pasteur pipet). The column was washed twice with 1 ml water; the breakthrough and wash, which contained the [^14 C] fucosylated neutral acceptor, were collected together in a scintillation vial and counted for radioactivity using the scintillation coctail 3a70 (Research Products International, Mount Prospects, Ill.) and Beckman LS9000. The Dowex column was then eluted successively with 3 ml each of 0.1M and 0.2M NaCl; these eluates which contained the [^14 C] fucosylated sulfated acceptors, were counted for radioactivity as before. Corrections were made by subtracting the radioactivity in the water and NaCl eluates of the control incubation mixture from the corresponding test fractions. The duplicate runs of samples gave almost identical values, the difference being <5%.
As shown in the scheme set forth in FIG. 2, the α-L-fucosidase-free extract of the tissue (40 g), after concentration by 80% (NH4)2 SO4 precipitation was fractionated on bovine IgG glycopep-Sepharose in batches of 25 ml. After washing the column with the equilibration buffer, the bound enzyme was eluted with 1 M NaCl in the same buffer. The protein positive fractions were pooled and processed as shown in the scheme 2.0 ml of the above preparation was loaded on a Sephacryl S-200 column (Superfine:2.6 cm×88.0 cm) equilibrated at 4° C. with 50 mM Tris-HC1, pH 7.0 containing 0.15M NaCl and 0.1% Triton X-100 and eluted with the same buffer. Fractions of 3.0 ml were collected. The fucosyltransferase activity was located in the effluent fractions, by assaying first every 5th fraction and then obtaining the activity profile by assaying the alternate fractions in that range, using 2'-fucosyl LacNAc as the acceptor. […] Its elution position, which is slightly later than BSA, run separately on the same column, indicates its molecular weight as <67,000 daltons. […] The enzyme has been purified 66 fold over the soluble extract with a recovery of 6.2%. The enzyme at this stage lost its activity either kept frozen at -20° C. or left at 4° C. for more than a week. However, the enzyme at the end of the previous step was fairly stable for at least two months at 4° C. So this preparation of enzyme was used in acceptor ability comparison studies.
When α1,3-fucosyltransferase activity of the partially purified enzyme preparation from the soluble portion of ovarian tumor was measured and compared with the activity of other acceptors, the following results were obtained. 2'-methyl LacNAc, LacNAc and Galβ1, 3GlcNAc were respectively 100.0%, 60.6% and 565.5% active, indicating the presence of both α1,3 and α1,4 fucosyltransferase activities in this preparation.

[2] = test system: α1,3-L-fucosyltransferase of the particulate fraction of ovarian tumor; assay: Assay of α1,3-fucosyltransferase with synthetic acceptors, ovarian tumor particulate fraction; format: biochemical, human; conditions: for Relative Percent: 2'-methyl LacNAc = 100; for [14C] Fucose Incorporated (CPM): acceptor 3.0 mM, 37° C. 18 h
Method: FIG. 2 The scheme for the preparation of the particulate and soluble fractions of human ovarian tumor.
as §1
This finding is quite different from what we found with the soluble fraction, where α1,4-fucosyltransferase activity seems to be greater than α1,3-fucosyltransferase activity. […] The different nature of the above enzymes was made further clear, when sulfated derivatives of LacNAc was tested as acceptors.

[3] = biological target: T1, serum α1,3-L-fucosyltransferase (Homo sapiens, UniProt P51993); assay: Assay of α1,3-fucosyltransferase with various synthetic acceptors, ovarian cancer sera as enzyme source; format: biochemical; conditions: for Relative Percent: 2'-methyl LacNAc = 100; for [14C] Fucose Incorporated (CPM): acceptor 0.3 mM, 37° C. 18 h
T1 construct: Sera were collected from healthy females and ovarian cancer patients; from tissue; host or cells: blood serum of ovarian cancer patients and healthy females
T1 sequence (P51993 35-359 limits assumed): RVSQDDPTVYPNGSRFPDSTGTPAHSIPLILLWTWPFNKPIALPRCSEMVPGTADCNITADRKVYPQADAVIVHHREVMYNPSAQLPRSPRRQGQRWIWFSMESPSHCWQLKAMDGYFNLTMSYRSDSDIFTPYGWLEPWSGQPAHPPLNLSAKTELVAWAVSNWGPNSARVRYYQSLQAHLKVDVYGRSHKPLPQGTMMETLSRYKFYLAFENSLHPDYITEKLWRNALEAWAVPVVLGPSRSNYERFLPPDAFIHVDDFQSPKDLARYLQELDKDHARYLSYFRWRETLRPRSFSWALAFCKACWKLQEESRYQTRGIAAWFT
Method: Sera were collected from healthy females and ovarian cancer patients admitted to Roswell Park Cancer Institute in Buffalo, N.Y., USA. Ovarian tumor tissues were obtained during surgical procedures from patients with ovarian cancer. Both sera and tissues were stored frozen at -70° C. until use.
as §1
The activity of serum α1,3-fucosyltransferase was measured with the specific substrate 2'-methyl LacNAc and compared with the ability of several other synthetic substrates to act as an acceptor of fucose.
When the structure of the acceptor 2'-methyl LacNAc was modified by replacing the methyl group with sulfate group in C-2', 3', 6' or 6 position and tested their ability to act as the acceptor of fucose, the following novel findings emerged. […] The β-benzyl glycoside of 3' sulfo LacNAc was quite active (168.4%) but less than the parent compound.

Row | Relative Percent ([1]; 2'-methyl LacNAc = 100) | Relative Percent ([1]; 2'-methyl LacNAc = 100, listed as 2' sulfo LacNAc) | Relative Percent ([1]; 2'-methyl LacNAc = 100, listed as 2' sulfo-LacNAc) | [14C] Fucose Incorporated (CPM) [1] | Relative Percent [2] | [14C] Fucose Incorporated (CPM) [2] | Relative Percent [3] | [14C] Fucose Incorporated (CPM) [3] | Relative Percent ([1]; 2'-methyl LacNAc = 100, listed as 6' sulfo LacNAc) | Relative Percent ([1]; 2'-methyl LacNAc = 100, listed as 6-'-sulfo LacNAc) | Compound
1 | 32.7% | 33% | 32.7% | 2414 CPM | 9.8% | 4718 CPM | 22.0% | 380 CPM | – | – | CC(=O)N[C@H]1C(O)O[C@H](CO)[C@@H](O[C@@H]2O[C@H](CO)[C@H](O)[C@H](O)[C@H]2OS(=O)(=O)O)[C@@H]1O (stereo partly shown) [2'-Sulfo LacNAc]
2 | 5.3% | – | – | 395 CPM | 42.6% | 20543 CPM | 36.2% | 626 CPM | 5% | 5.3% | CC(=O)N[C@H]1C(O)O[C@H](CO)[C@@H](O[C@@H]2O[C@H](COS(=O)(=O)O)[C@H](O)[C@H](O)[C@H]2O)[C@@H]1O (stereo partly shown) [6'-Sulfo LacNAc]
3 | 373.0% | – | – | 27571 CPM | 174.0% | 83975 CPM | 425.0% | 7352 CPM | – | – | CC(=O)N[C@H]1[C@H](OCc2ccccc2)O[C@H](CO)[C@@H](O[C@@H]2O[C@H](CO)[C@H](O)[C@H](O)[C@H]2O[C@@H]2O[C@@H](C)[C@@H](O)[C@@H](O)[C@@H]2O)[C@@H]1O [2'-Fucosyl LacNAcβ-O--Bn]
4 | 113.2% | – | – | 8367 CPM | 149.2% | 71989 CPM | 307.9% | 5326 CPM | – | – | CO[C@H]1[C@H](O[C@H]2[C@H](O)[C@@H](NC(C)=O)[C@H](OCc3ccccc3)O[C@@H]2CO)O[C@H](CO)[C@H](O)[C@@H]1O [2'-methyl LacNAcβ-O--Bn]
